# Results from patent US20070117743A1, “New antitumoral compounds” (priority 2003, published 2007).
# Where two headings read alike, the source gives them in different places. Where a SMILES comes first, the peptide text is derived from it. Bridges are numbered along the chain shown (N, C = ends). [ ]: non-standard residue; d: D form. The star is where a group is joined. Hexanoyl(4S-Me) = CC[C@H](C)CCC(=O)*; d(aIle) = CC[C@H](C)[C@@H](N)C(=O)O; d(aThr) = C[C@@H](O)[C@@H](N)C(=O)O; dTic = O=C(O)[C@H]1Cc2ccccc2CN1; Orn = NCCC[C@H](N)C(=O)O; Dhb = C/C=C(\N)C(=O)O
# What was measured:
# Format in all cases: cell-based, human
# LoVo-Dox = test: SRB colorimetric assay of cell growth and viability, LoVo-Dox; settings: 48 hours exposure; for CC50: read-out: LC50 LOVO-DOX
# Method in brief: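 Here, cells grow drug-free for 18 h, then receive sample dilutions from 10 down to 10^−8 μg/mL for 48 h at 37° C. Protein-bound SRB is solubilized in Tris and quantified at 490 nm.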
# PANC-1 = test: SRB colorimetric assay of cell growth and viability, PANC-1; settings: 48 hours exposure; for CC50: read-out: LC50 PANC-1
# IGROV-1 = test: SRB colorimetric assay of cell growth and viability, IGROV-1; settings: 48 hours exposure
# LNCaP = test: SRB colorimetric assay of cell growth and viability, LNCaP; settings: 48 hours exposure; for GI50: read-out: GI50 LN-caP; for CC50: read-out: LC50 LN-caP
# Source text: The finality of this assay is to interrupt the growth of a “in vitro” tumor cell culture by means a continued exhibition of the cells to the sample to be testing.
# This form of the assay employs 96 well cell culture microplates of 9 mm diameter (Faircloth, 1988; Mosmann, 1983). Most of the cell lines are obtained from American Type Culture Collection (ATCC) derived from different human cancer types.
# Cells are maintained in RPMI 1640 10% FBS, supplemented with 0.1 g/l penicillin and 0.1 g/l streptomycin sulfate and then incubated at 37° C., 5% CO2 and 98% humidity. For the experiments, cells were harvested from subconfluent cultures using trypsin and resuspended in fresh medium before plating.
# Cells are seeded in 96 well microtiter plates, at 5×10^3 cells per well in aliquots of 195 μL medium, and they are allowed to attach to the plate surface by growing in drug free medium for 18 hours. Afterward, samples are added in aliquots of 5 μL in a ranging from 10 to 10^−8 μg/mL, dissolved in DMSO:EtOH:PBS (0.5:0.5:99). After 48 hours exposure, the antitumor effect are measured by the SRB methodology: cells are fixed by adding 50 μL of cold 50% (wt/vol) trichloroacetic acid (TCA) and incubating for 60 minutes at 4° C. Plates are washed with deionized water and dried. One hundred μL of SRB solution (0.4% wt/vol in 1% acetic acid) is added to each microtiter well and incubated for 10 minutes at room temperature. Unbound SRB is removed by washing with 1% acetic acid. Plates are air dried and bound stain is solubilized with Tris buffer. Optical densities are read on a automated spectrophotometric plate reader at a single wavelength of 490 nm.
# The values for mean+/− SD of data from triplicate wells are calculated. Some parameters for cellular responses can be calculated: GI=growth inhibition, TGI=total growth inhibition (cytostatic effect) and LC=cell killing (cytotoxic effect).
# HeLa = test: SRB colorimetric assay of cell growth and viability, HeLa; settings: 48 hours exposure; for CC50: read-out: LC50 HELA
# HeLa-APL = test: SRB colorimetric assay of cell growth and viability, HeLa-APL; settings: 48 hours exposure; for CC50: read-out: LC50 HELA-APL
# IGROV-ET = test: SRB colorimetric assay of cell growth and viability, IGROV-ET; settings: 48 hours exposure; for CC50: read-out: LC50 IGROV-ET
# LoVo = test: SRB colorimetric assay of cell growth and viability, LoVo; settings: 48 hours exposure; for CC50: read-out: LC50 LOVO
# SK-MEL-28 = test: SRB colorimetric assay of cell growth and viability, SK-MEL-28; settings: 48 hours exposure; for CC50: read-out: LC50 MEL-28
# A-549 = test: SRB colorimetric assay of cell growth and viability, A-549; settings: 48 hours exposure; for GI50: read-out: GI50 A-549; for CC50: read-out: LC50 A-549
# HT-29 = test: SRB colorimetric assay of cell growth and viability, HT-29; settings: 48 hours exposure; for GI50: read-out: GI50 HT-29; for CC50: read-out: LC50 HT-29
# K-562 = test: SRB colorimetric assay of cell growth and viability, K-562; settings: 48 hours exposure; for CC50: read-out: LC50 K-562
# DU-145 = test: SRB colorimetric assay of cell growth and viability, DU-145; settings: 48 hours exposure
smiles,measurement,setting,value
"C/C=C1\NC(=O)[C@H](Cc2ccccc2)NC(=O)[C@@H](C(C)C)NC(=O)[C@@H]([C@@H](C)CC)NC(=O)[C@H](NC(=O)[C@H](NC(=O)[C@H](CCCN)NC(=O)[C@H]2Cc3ccccc3CN2C(=O)[C@H](NC(=O)[C@@H](NC(=O)[C@@H](NC(=O)[C@H](NC(=O)CC[C@@H](C)CC)C(C)C)[C@@H](C)O)C(C)C)C(C)C)[C@@H](C)CC)[C@@H](C)OC(=O)[C@H](C(C)C)NC1=O [Compound 61, [D-Tic^9, (4S)-MeHex^14]-KF] ({Hexanoyl(4S-Me)}-[dV]TV[dV][dTic][Orn][d(aIle)][d(aThr)][d(aIle)][dV]F[Dhb]V; ester 8-C)",GI50,LoVo-Dox; LOVO-DOX,1170 nM
same,TGI LOVO-DOX,LoVo-Dox; LOVO-DOX,2.71E−06 Molar
same,CC50,LoVo-Dox; LOVO-DOX,6.28 µM
same,GI50,PANC-1; PANC-1,≥ 6490 nM
same,TGI PANC-1,PANC-1; PANC-1,6.49E−06 Molar
same,CC50,PANC-1; PANC-1,≥ 6.49 µM
same,GI50,IGROV-1; SRB,1360 nM
same,LC50 (concentration causing 50% net cell killing),IGROV-1; SRB,5.98 µM
same,TGI IGROV,IGROV-1; SRB,2.86E−06 Molar
same,TGI LN-caP,LNCaP; SRB,2.40E−06 Molar
same,GI50,LNCaP; SRB,921 nM
same,CC50,LNCaP; SRB,6.26 µM
same,GI50,HeLa; HELA,3480 nM
same,TGI HELA,HeLa; HELA,6.49E−06 Molar
same,CC50,HeLa; HELA,≥ 6.49 µM
same,GI50,HeLa-APL; HELA-APL,4.93 µM
same,TGI HELA-APL,HeLa-APL; HELA-APL,6.49E−06 Molar
same,CC50,HeLa-APL; HELA-APL,≥ 6.49 µM
same,GI50,IGROV-ET; SRB,1440 nM
same,TGI IGROV-ET,IGROV-ET; SRB,3.30E−06 Molar
same,CC50,IGROV-ET; SRB,≥ 6.49 µM
same,GI50,LoVo; LOVO,1200 nM
same,TGI LOVO,LoVo; LOVO,2.65E−06 Molar
same,CC50,LoVo; LOVO,5.83 µM
same,GI50,SK-MEL-28; SRB,3790 nM
same,TGI MEL-28,SK-MEL-28; SRB,6.49E−06 Molar
same,CC50,SK-MEL-28; SRB,≥ 6.49 µM
same,TGI A-549,A-549; A-549,6.49E−06 Molar
same,GI50,A-549; A-549,2870 nM
same,CC50,A-549; A-549,≥ 6.49 µM
same,TGI HT-29,HT-29; HT-29,2.25E−06 Molar
same,GI50,HT-29; HT-29,1180 nM
same,CC50,HT-29; HT-29,4.26 µM
same,GI50,K-562; K-562,≥ 6.49 µM
same,TGI K-562,K-562; K-562,6.49E−06 Molar
same,CC50,K-562; K-562,≥ 6.49 µM
same,GI50,DU-145; SRB,1720 nM
same,LC50 (concentration causing 50% net cell kill),DU-145; SRB,≥ 6.49 µM
same,TGI DU-145,DU-145; SRB,4.24E−06 Molar
"C/C=C1\NC(=O)[C@H](Cc2ccccc2)NC(=O)[C@@H](C(C)C)NC(=O)[C@@H]([C@@H](C)CC)NC(=O)[C@H](NC(=O)[C@H](NC(=O)[C@H](CCCN)NC(=O)[C@H]2CCCN2C(=O)[C@H](NC(=O)[C@@H](NC(=O)[C@@H](NC(=O)[C@H](NC(=O)CCCC(C)C)[C@H](C)O)[C@@H](C)O)C(C)C)C(C)C)[C@@H](C)CC)[C@@H](C)OC(=O)[C@H](C(C)C)NC1=O [Compound 41, [D-Thr^13]-KF]",GI50,LoVo-Dox,126 nM
same,TGI LOVO-DOX,LoVo-Dox,2.53E−07 Molar
same,CC50,LoVo-Dox,0.509 µM
same,GI50,PANC-1,2690 nM
same,TGI PANC-1,PANC-1,6.76E−06 Molar
same,CC50,PANC-1,≥ 6.76 µM
same,GI50,IGROV-1,777 nM
same,LC50 (concentration causing 50% net cell killing),IGROV-1,3.13 µM
same,TGI IGROV,IGROV-1,1.56E−06 Molar
same,TGI LN-caP,LNCaP,6.76E−06 Molar
same,GI50,LNCaP,2280 nM
same,CC50,LNCaP,≥ 6.76 µM
same,GI50,HeLa,1020 nM
same,TGI HELA,HeLa,2.00E−06 Molar
same,CC50,HeLa,3.94 µM
same,GI50,HeLa-APL,1.24 µM
same,TGI HELA-APL,HeLa-APL,2.15E−06 Molar
same,CC50,HeLa-APL,3.74 µM
same,GI50,IGROV-ET,515 nM
same,TGI IGROV-ET,IGROV-ET,1.35E−06 Molar
same,CC50,IGROV-ET,3.16 µM
same,GI50,LoVo,155 nM
same,TGI LOVO,LoVo,7.23E−07 Molar
same,CC50,LoVo,2.9 µM
same,GI50,SK-MEL-28,1230 nM
same,TGI MEL-28,SK-MEL-28,2.20E−06 Molar
same,CC50,SK-MEL-28,3.96 µM
same,TGI A-549,A-549,2.72E−06 Molar
same,GI50,A-549,1630 nM
same,CC50,A-549,4.53 µM
same,TGI HT-29,HT-29,1.57E−06 Molar
same,GI50,HT-29,730 nM
same,CC50,HT-29,3.41 µM
same,GI50,K-562,5.85 µM
same,TGI K-562,K-562,6.76E−06 Molar
same,CC50,K-562,≥ 6.76 µM
same,GI50,DU-145,1000 nM
same,LC50 (concentration causing 50% net cell kill),DU-145,3.73 µM
same,TGI DU-145,DU-145,1.93E−06 Molar
